According to US8053573B2, “Monomer 5, 6-diphenyl-1.2.4-traizinic derivatives and the use thereof” (Pierre Fabre Dermo-Cosmetique, priority 2004, dated 2011):

Key:
Format in all cases: physicochemical
[1] = Photostability in solution in a chemical solvent (Suntest CPS+); details: 25 μg deposited from methanol, absorbance vs non-irradiated control, in % (unit assumed); for Photostability at 10 MED mean: Suntest irradiation 10 MED; for Photostability at 20 MED mean: Suntest irradiation 20 MED
Description: A Suntest CPS+ (Atlas, Linsengenicht/Altenhasslan, Germany) was used. The Suntest makes it possible to reproduce the solar spectrum and thus to carry out exposures inside at any time without weather constraints.
The radiance of the solar simulator was carefully measured with a spectroradiometer (MSS 2044, Bielefeld, Germany). UVB and UVA intensities were 0.49 mW/cm^2 and 6.32 mW/cm^2, respectively. The MED value defined by COLIPA is 5.6 J/cm^2 in total UV (22). The UV total (UVA+UVB) accounts for 14.8% of the energy delivered by the lamp (power 460 W/m^2). An irradiation dose equivalent to 1 MED corresponds to 37.83 J/cm^2 (in total spectrum) delivered by the lamp.
The Suntest test duration is calculated using the following formula: t=H/E with: […]
The solutions of the compounds are prepared at a concentration of 500 μg/ml in methanol. 50 μl (25 μg) of each solution are deposited in a crystallizer, then irradiated in the Suntest at 5, 10 and/or 20 MED. A non-irradiated control is prepared (deposit of 50 μl of solution and addition of 2.450 ml of methanol). The solvent evaporates during irradiation and the products are taken up in 2.5 ml of methanol. After irradiation, the absorbance of each solution is measured with the UV-visible spectrophotometer (Varian CARY 50 Scan).

[2] = Spectral distribution in UVA and UVB (290-400 nm); details: range from 290 nm to 400 nm
Description: The products tested are classified according to spectral distribution in UVA and UVB in a range from 290 nm to 400 nm.
It is possible to differentiate them according to their spectral distribution:
Products with a narrow spectrum: • Products absorbing in the range between 280 nm and 320 nm (UVB) • Products absorbing in the range between 320 nm and 400 nm (UVA) Products with a broad spectrum: • Products absorbing in UVB (280-320 nm) and UVA-II […] • Products covering UVB and UVA (280-400 nm).

[3] = Spectral characteristics: molar extinction coefficient and specific absorbance; details: ethyl acetate, 10 μg/ml; for Maximum specific absorbance UVB / Maximum specific absorbance UVA: A1cm^1%
Description: The calculation of the molar extinction coefficient (ε) is made from the Beer-Lambert law:
[formula] Wherein: A=absorbance I0=intensity of the incident light I=intensity of the transmitted light ε=molar extinction (or molar absorbance) coefficient in M^−1 cm^−1 l=path length in cm c=concentration in mol/l
The molar extinction coefficient can be expressed with respect to a given mass of the product. It thus makes it possible to be able to compare the coefficients of extinction between products for the same given quantity. This quantity is 1% by weight. The molar extinction coefficient thus becomes the specific absorbance (A1cm^1%).
[formula] Wherein: A1cm^1%=specific absorbance ε=molar extinction coefficient M=molar mass
The spectral characteristics of the compounds in comparison with commercial filters at a concentration of 10 μg/ml are summarized in tables 2-1 and 2-2.
Procedure: The products are dissolved in ethyl acetate to a concentration of 10 μg/ml. The spectra are measured using a dual-beam spectrophotometer (Varian CARY 50 Scan) between 290 nm and 400 nm.

[4] = as above; details: ethyl acetate, 10 μg/ml; for Maximum specific absorbance UVC: A1cm^1%
[5] = In vitro SPF in a chemical solvent (Diffey and Robson); details: ethyl acetate solution, 10 μg/ml, transmittance 290-400 nm
Description: The in vitro methods of determining the protective effectiveness of sun products consist of measuring by transmission spectrophotometry the absorption spectrum of the filter in solution or of the product applied on a substrate with the aim of simulating the surface of the skin. The effectiveness against UVB and/or UVA rays, or the effect on the cutaneous response, are then determined by calculation, taking into account or not the UV radiation action spectrum for the damage considered.
The Sayre/Agin and Diffey/Robson method, used since the 1990s, involves a comparative measurement, with the aid of an integrating-sphere spectroradiometer, of the transition from 290 nm to 400 nm in 5 nm steps, the sample being subjected to UV radiation from a stable known source covering the whole of the UV spectrum (unfiltered xenon).
Diffey and Robson evaluate the erythemal response by the following calculation:
[formula] E(λ)=spectral irradiation in W(m^−2) (nm^−1) at 40° N sun at 20° zenith angle ε=erythematous capacity
The Diffey and Robson formula makes it possible to determine SPF from the measurement of transmittance between 290 nm and 400 nm. Transmittance is measured in solution in ethyl acetate at a concentration of 10 μg/ml using a UV-visible spectrophotometer (Varian CARY 50 Scan).

Structure (SMILES)	Photostability at 10 MED mean [1]	Photostability at 20 MED mean [1]	Spectral distribution [2]	Maximum specific absorbance UVB [3]	Maximum molar extinction coefficient UVB [3]	Wavelength of maximum molar extinction coefficient UVB [3]	Wavelength of maximum specific absorbance UVB [3]	Maximum specific absorbance UVC [4]	Maximum molar extinction coefficient UVC [4]	Wavelength of maximum molar extinction coefficient UVC [4]	Wavelength of maximum specific absorbance UVC [4]	Maximum specific absorbance UVA [3]	Maximum molar extinction coefficient UVA [3] [M⁻¹ cm⁻¹]	Wavelength of maximum molar extinction coefficient UVA [3]	Wavelength of maximum specific absorbance UVA [3]	SPF [5]
COc1ccc(-c2nnc(-c3ccc(OC)cc3)c(-c3ccc(OC)cc3)n2)cc1 [JR70, 3-(4-methoxyphenyl)-5,6-bis(4-methoxyphenyl)-1,2,4-triazine]	44.51	30.83	absorb in UVB	982	29200 M⁻¹ cm⁻¹	at 310	at 310									
Oc1ccccc1-c1nnc(-c2ccccc2)c(-c2ccccc2)n1 [JR67, 3-(2-hydroxyphenyl)-5,6-diphenyl-1,2,4-triazine]								811	26300 M⁻¹ cm⁻¹	at 280	at 280	502	16300	at 330	at 330	
CCN(CC)c1ccc(-c2nnc(O)nc2-c2ccc(N(CC)CC)cc2)cc1 [JR18, 3-hydroxy-5,6-bis(4-diethylaminophenyl)-1,2,4-triazine]	82.86	57.37														
COc1ccc(-c2nnc(-c3cc(O)c(O)c(O)c3)nc2-c2ccc(OC)cc2)cc1 [JR115, 3-(3,4,5-hydroxyphenyl)-5,6-bis(4-methoxyphenyl)-1,2,4-triazine]	57.63	46.42	absorb in UVB (280-320 nm) and UVA-II (280-340 nm)	747	34300 M⁻¹ cm⁻¹	at 310	at 310									
COc1ccc(-c2nnc(-c3cccc(C#N)c3)nc2-c2ccc(OC)cc2)cc1 [JR113, 3-(3-cyanophenyl)-5,6-bis(4-methoxyphenyl)-1,2,4-triazine]	98.07	97.67	absorb in UVB and UVA	721	28800 M⁻¹ cm⁻¹	at 295	at 295					570	22469	at 340	at 340	67.74
COc1ccc(C(=O)CC(=O)c2ccc(C(C)(C)C)cc2)cc1 [Parsol 1789 ®, reference compound]	57.04	6.26	only absorbs in UVA					278 at	8633 at M^−1 cm^−1	275	275	1100	34100	at 360	at 360	51.1
COc1ccc(-c2nnc(-c3ccccc3O)nc2-c2ccc(OC)cc2)cc1 [JR89, 3-(2-hydroxyphenyl)-5,6-bis(4-methoxyphenyl)-1,2,4-triazine]	97.39	98.72	absorb in UVB (280-320 nm) and UVA-II (280-340 nm)					502	19300 M⁻¹ cm⁻¹	at 280	at 280	526 at	20300	at 335	335	
COc1ccc(-c2nnc(-c3ccc(C#N)cc3)nc2-c2ccc(OC)cc2)cc1 [JR107, 3-(4-cyanophenyl)-5,6-bis(4-methoxyphenyl)-1,2,4-triazine]	58.45	47.81	absorb in UVB and UVA	688 at	27100 at M^−1 cm^−1	300	300	655 at	25800 M⁻¹ cm⁻¹	at 270	270	498 at	19600	at 350	350	
CC(C)(C)CC(C)(C)c1cc(Cc2cc(C(C)(C)CC(C)(C)C)cc(-n3nc4ccccc4n3)c2O)c(O)c(-n2nc3ccccc3n2)c1 [Tinosorb M ®, reference compound]			absorb in UVB and UVA	556	36600 M⁻¹ cm⁻¹	at 305	at 305					552	36400	at 345	at 345	54.07
Oc1ccc(-c2nnc(-c3ccccc3)c(-c3ccccc3)n2)cc1 [JR68, 3-(4-hydroxyphenyl)-5,6-diphenyl-1,2,4-triazine]	98.2	95.33	absorb in UVB (280-320 nm) and UVA-II (280-340 nm)					702	22800 M⁻¹ cm⁻¹	at 280	at 280	424	13800	at 330	at 330	
COc1ccc(-c2nnc(-c3ccccc3C#N)nc2-c2ccc(OC)cc2)cc1 [JR114, 3-(2-cyanophenyl)-5,6-bis(4-methoxyphenyl)-1,2,4-triazine]	92.07	91.43	absorb in UVB and UVA									661	26000	at 325	at 352	
